By KD is commonly meant the free concentration of one partner at which half of the binding sites on the other are occupied at equilibrium, for simple one-to-one binding. As usually defined, the Km is the substrate concentration at which the rate is half of its maximum.

This is an account of results in article PMC10510756 (Chemical Science, 2023).

The subject of experiment [1] is Cy5-SAM-VI RS (RNA, riboswitch) GGCAUUGUGCCUCGCAUUGCACUCCGCGGGGCGAUAAGUCCUGAAAAGGGAUGUC
Put plainly: MST, 5'-Cy5-labelled RNA. The conditions noted are these: 100 mM KCl, 25 mM MgCl2; 50 mM Tris-HCl pH 7.5, 25 °C, 20 nM RNA.

In experiment [2] the test system is SAM-I RS (RNA, riboswitch) GGCUUAUCAAGAGAGGGGGAGCGACUGGCGCGAAGAACCCCGGCAACCAGAAAUGGUGCCAAUUCCUGCAGCGGAAACGUUGAAAGAUGAGCCG
Put plainly: MST, SybrGold (1x) non-covalent dye. The settings on record: 100 mM KCl, 25 mM MgCl2; 50 mM Tris-HCl pH 7.5, 25 °C, 100 nM RNA.

Experiment [3] relates to SAM-VI RS (RNA, riboswitch) GGCAUUGUGCCUCGCAUUGCACUCCGCGGGGCGAUAAGUCCUGAAAAGGGAUGUC
As to the kind of experiment: MST, SybrGold (1x) non-covalent dye. The settings on record: 100 mM KCl, 25 mM MgCl2; 50 mM Tris-HCl pH 7.5, 25 °C, 100 nM RNA.

In experiment [4] the test system is Neomycin aptamer (RNA, aptamer) GGCUGCUUGUCCUUUAAUGGUCCAGUC
Put plainly: MST, Syto 59 (1x) non-covalent dye. The conditions noted are these: 100 mM KCl, 25 mM MgCl2; 50 mM Tris-HCl pH 7.5, 25 °C, 100 nM RNA; apparent; below tight-binding limit.

For another experiment, the target named is METTL3/14 (Homo sapiens, UniProt Q86U44).
Chain of METTL3/14 (Q86U44 2-580): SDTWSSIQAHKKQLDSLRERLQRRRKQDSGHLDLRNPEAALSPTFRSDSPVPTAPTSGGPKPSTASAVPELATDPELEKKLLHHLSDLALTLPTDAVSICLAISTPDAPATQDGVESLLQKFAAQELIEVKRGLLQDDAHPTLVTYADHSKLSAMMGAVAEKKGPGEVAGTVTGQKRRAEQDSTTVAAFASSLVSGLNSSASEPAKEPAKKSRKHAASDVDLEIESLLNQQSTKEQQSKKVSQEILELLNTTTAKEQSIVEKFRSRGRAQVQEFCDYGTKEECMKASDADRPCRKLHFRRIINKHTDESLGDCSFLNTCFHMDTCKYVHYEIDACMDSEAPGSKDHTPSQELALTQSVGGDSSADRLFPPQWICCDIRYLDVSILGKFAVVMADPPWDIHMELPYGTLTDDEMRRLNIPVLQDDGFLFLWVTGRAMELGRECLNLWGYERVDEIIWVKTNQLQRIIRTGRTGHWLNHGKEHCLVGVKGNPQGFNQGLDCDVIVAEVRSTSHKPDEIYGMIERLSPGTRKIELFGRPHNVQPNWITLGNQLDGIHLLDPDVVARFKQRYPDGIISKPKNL
Chain of METTL3/14 (Q9HCE5 whole entry partner): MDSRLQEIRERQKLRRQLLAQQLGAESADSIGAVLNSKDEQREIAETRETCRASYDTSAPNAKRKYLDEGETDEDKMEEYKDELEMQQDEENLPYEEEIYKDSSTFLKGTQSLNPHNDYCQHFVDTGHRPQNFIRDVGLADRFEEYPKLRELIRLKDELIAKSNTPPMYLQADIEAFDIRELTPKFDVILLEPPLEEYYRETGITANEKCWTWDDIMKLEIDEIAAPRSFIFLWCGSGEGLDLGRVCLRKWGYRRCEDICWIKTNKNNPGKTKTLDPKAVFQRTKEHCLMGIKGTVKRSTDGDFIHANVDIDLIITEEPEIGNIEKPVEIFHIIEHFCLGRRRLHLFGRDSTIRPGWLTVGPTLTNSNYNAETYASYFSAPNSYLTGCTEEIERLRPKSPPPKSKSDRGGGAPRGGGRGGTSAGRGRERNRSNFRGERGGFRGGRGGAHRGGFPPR
Experiment [5] concerns PreQ1 RS (RNA, riboswitch) GGAGAGGUUCUAGCUACACCUCUAUAAAAAACUAA
Put plainly: MST, SybrGold (1x) non-covalent dye. The settings on record: 100 mM KCl, 25 mM MgCl2; 50 mM Tris-HCl pH 7.5, 25 °C, 100 nM RNA; apparent; near tight-binding limit.

As to `Nc1ncnc2c1ncn2[C@@H]1O[C@H](CSCC[C@H](N)C(=O)O)[C@@H](O)[C@H]1O`, the equilibrium dissociation constant (KD) in experiment [1] was 23600 ± 7000 nM; in experiment [2], 137000 nM; in experiment [3], 10000 nM. For `NC[C@@H]1O[C@H](O[C@H]2[C@@H](O)[C@H](O[C@@H]3[C@@H](O)[C@H](N)C[C@H](N)[C@H]3O[C@H]3O[C@H](CN)[C@@H](O)[C@H](O)[C@H]3N)O[C@@H]2CO)[C@H](N)[C@@H](O)[C@@H]1O`, in experiment [4], the “KD,app” value turned out to be 29.6 nM. Take `C[S+](CC[C@H](N)C(=O)[O-])C[C@H]1O[C@@H](n2cnc3c(N)ncnc32)[C@H](O)[C@@H]1O` (stereo partly drawn) [S-adenosylmethionine]: the Km on METTL3/14 was 0.226 µM.

For the molecule `C[S+](CC[C@H](N)C(=O)O)C[C@H]1O[C@@H](n2cnc3c(N)ncnc32)[C@H](O)[C@@H]1O` (stereo partly drawn), the KD in experiment [1] worked out at 699 ± 185 nM; in experiment [2], 157 nM; in experiment [3], 953 nM. As to `NCc1c[nH]c2nc(N)[nH]c(=O)c12`, the “KD,app” value in experiment [5] turned out to be 44.8 nM.
